According to patent US8399106B2, “Composition and method for treating wood” (Kemira OyJ, priority 2007, dated 2013):

Legend:
[1] = wood treated only with a chelating agent; as described in WO 0123154; cited from earlier work
[2] = test system: Aureobasidium pullulans and Sclerophoma pithyophila (pooled suspension); conditions: literature reference, 1.0% of NHA; cited from earlier work
rot fungi = experiment: Rot resistance / wood protection class (EN 350-1), fungus not specified; type: cell-based; conditions: treated wood
Protocol: Rot testing was carried out according to the EN 113 standard. 10 test samples impregnated with respective agents for each of the three rot fungi were used in the test. A sample made of surface wood of pine was placed as a control with the impregnated test samples to the same container for the rot test. Activity of each fungus was tested with eight test samples (so-called infection test). Said test samples for the fungus activity testing were placed in respective containers for the rot test without impregnated test samples.
In the method, an X value was calculated for each impregnation batch and for each fungus, said X value describing the ratio of the mass loss of the impregnated test samples to that of the unimpregnated control samples. X value was calculated by dividing the corrected mass loss of the impregnated test samples by that of the unimpregnated control samples. The calculation was based on mean values. Based on the result obtained, the rot resistance class was determined as follows for the fungus with the highest rot activity:

**Q.** For `O=C(O)CN(CCN(CC(=O)O)CC(=O)O)CC(=O)O` [EDTA, ethylenediaminetetraacetic acid], which “amounts washed out of wood, in words” value [1] is on record?
**A.** so high

**Q.** With `O=C1c2cccc3cccc(c23)C(=O)N1O` [NHA, N,N-naphthaloylhydroxylamine] as the compound, how does the “Microbial growth 0 to 5” value [2] read?
**A.** 4 (high amounts of microbial growth (more than 40% of the surface of the test sample covered by microbial growth))

**Q.** Which “wood protection class (rot protection standard EN 350-1, classes 1-5)” value (rot fungi) does the source give for `O=C[O-].O=C[O-].[Ca+2]` [calcium formate] here?
**A.** 3 (Class 3=reasonably resistant 0.30<X≦0.60)
